Activity calls are given as the source filed them. No cut-off for these calls is given here.
Target: T1, Peroxisome proliferator-activated receptor gamma (Homo sapiens) (UniProt P37231)
T1 sequence (whole entry): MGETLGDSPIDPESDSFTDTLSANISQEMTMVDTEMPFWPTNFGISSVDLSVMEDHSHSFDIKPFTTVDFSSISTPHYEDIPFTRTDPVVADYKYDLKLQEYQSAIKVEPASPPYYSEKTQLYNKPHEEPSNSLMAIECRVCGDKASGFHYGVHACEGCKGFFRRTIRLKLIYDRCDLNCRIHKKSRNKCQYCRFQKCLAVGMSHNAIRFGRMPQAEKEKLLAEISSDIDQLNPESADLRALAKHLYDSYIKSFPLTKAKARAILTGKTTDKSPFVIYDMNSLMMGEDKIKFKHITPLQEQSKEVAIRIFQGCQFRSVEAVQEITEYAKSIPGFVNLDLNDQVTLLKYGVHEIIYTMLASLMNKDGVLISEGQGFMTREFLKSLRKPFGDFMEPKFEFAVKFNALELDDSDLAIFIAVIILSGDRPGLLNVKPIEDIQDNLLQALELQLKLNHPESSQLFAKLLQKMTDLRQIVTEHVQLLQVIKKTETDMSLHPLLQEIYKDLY
Assay: Transactivation of Gal4-fused human PPARgamma transfected in COS7 cells co-transfected with pGAL5-TK-pGL3 and pRennilla-CMV assessed as maximum intrinsic activation at 10 uM incubated for 39 hrs by dual luciferase reporter assay relative to pioglitazone
Type: cell-based
Conditions: not given

| Structure (SMILES) | Intrinsic activity [%] |
| --- | --- |
| CCCc1nc2c(F)cccc2n1Cc1ccc(-c2ccccc2C(N)=O)cc1 | 33.3 |
| CCCc1nc2c(C(F)(F)F)cccc2n1Cc1ccc(-c2ccccc2C(N)=O)cc1 | 19.5 |
| CCCc1nc2c(O)cccc2n1Cc1ccc(-c2ccccc2C(=O)O)cc1 | 14.4 |
| CCCc1nc2c(OC)cccc2n1Cc1ccc(-c2ccccc2C(=O)O)cc1 | 17.9 |
| CCCc1nc2c(N)cccc2n1Cc1ccc(-c2ccccc2C(N)=O)cc1 | 25.1 |

System: not listed separately
Assay: Solubility of compound in water at >20 uM
Type: physicochemical
Conditions: buffer

| Structure (SMILES) | solubility |
| --- | --- |
| CCCc1nc2c(F)cccc2n1Cc1ccc(-c2ccccc2C(N)=O)cc1 | Insoluble |
| CCCc1nc2c(C(F)(F)F)cccc2n1Cc1ccc(-c2ccccc2C(N)=O)cc1 | Insoluble |
| CCCc1nc2c(N)cccc2n1Cc1ccc(-c2ccccc2C(N)=O)cc1 | Insoluble |

Target: T1, Peroxisome proliferator-activated receptor gamma (Homo sapiens)
Assay: Transactivation of Gal4-fused human PPARgamma transfected in COS7 cells co-transfected with pGAL5-TK-pGL3 and pRennilla-CMV assessed as maximum intrinsic activation at 20 uM incubated for 39 hrs by dual luciferase reporter assay
Type: cell-based
Conditions: not given

| Structure (SMILES) | Intrinsic activity |
| --- | --- |
| CCCc1nc2c(F)cccc2n1Cc1ccc(-c2ccccc2C(N)=O)cc1 | inactive |
| CCCc1nc2c(C(F)(F)F)cccc2n1Cc1ccc(-c2ccccc2C(N)=O)cc1 | inactive |
| CCCc1nc2c(N)cccc2n1Cc1ccc(-c2ccccc2C(N)=O)cc1 | inactive |

System: K562-IMA[r]
Assay: Induction of sensitization to imatinib-induced cytotoxicity in imatinib-resistant human K562-IMA[r] cells assessed as induction of cell death at 10 uM after 72 hrs in presence of 1 uM imatinib by propidium iodide/Triton-X100 dye based FACS analysis
Type: functional
Conditions: not given

| Structure (SMILES) | Activity |
| --- | --- |
| CCCc1nc2c(O)cccc2n1Cc1ccc(-c2ccccc2C(=O)O)cc1 | Active |
| CCCc1nc2c(OC)cccc2n1Cc1ccc(-c2ccccc2C(=O)O)cc1 | Active |
| CCCc1nc2c(N)cccc2n1Cc1ccc(-c2ccccc2C(N)=O)cc1 | Active |

System: K562-IMA[r]
Assay: Cytotoxicity against imatinib-resistant human K562-IMA[r] cells assessed as induction of cell death at 10 uM after 72 hrs by propidium iodide/Triton-X100 dye based FACS analysis relative to control
Conditions: not given

| Structure (SMILES) | Activity [%] |
| --- | --- |
| CCCc1nc2c(F)cccc2n1Cc1ccc(-c2ccccc2C(N)=O)cc1 | < 20 |
| CCCc1nc2c(C(F)(F)F)cccc2n1Cc1ccc(-c2ccccc2C(N)=O)cc1 | < 20 |

System: K562-IMA[r]
Assay: Cytotoxicity against imatinib-resistant human K562-IMA[r] cells assessed as cell death at 10 uM after 72 hrs by propidium iodide/Triton-X100 dye based FACS analysis
Conditions: not given

| Structure (SMILES) | Activity |
| --- | --- |
| CCCc1nc2c(O)cccc2n1Cc1ccc(-c2ccccc2C(=O)O)cc1 | Non-Toxic |
| CCCc1nc2c(OC)cccc2n1Cc1ccc(-c2ccccc2C(=O)O)cc1 | Non-Toxic |
| CCCc1nc2c(N)cccc2n1Cc1ccc(-c2ccccc2C(N)=O)cc1 | Non-Toxic |

System: K562-IMA[r]
Assay: Induction of sensitization to imatinib induced cytotoxicity in imatinib-resistant human K562-IMA[r] cells assessed as cell death up to 2.5 uM measured after 72 hrs in presence of 1 uM imatinib by propidium iodide/Triton-X100 dye based FACS analysis
Type: functional
Conditions: not given

| Structure (SMILES) | Activity |
| --- | --- |
| CCCc1nc2c(F)cccc2n1Cc1ccc(-c2ccccc2C(N)=O)cc1 | inactive |
| CCCc1nc2c(C(F)(F)F)cccc2n1Cc1ccc(-c2ccccc2C(N)=O)cc1 | inactive |

System: K562-IMA[r]
Assay: Induction of sensitization to imatinib-induced cytotoxicity in imatinib-resistant human K562-IMA[r] cells assessed as gain in cell death rate at 5 uM measured after 72 hrs in presence of 1 uM imatinib by propidium iodide/Triton-X100 dye based FACS analysis relative to imatinib-treated control
Type: functional
Conditions: not given

| Structure (SMILES) | Activity [%] |
| --- | --- |
| CCCc1nc2c(F)cccc2n1Cc1ccc(-c2ccccc2C(N)=O)cc1 | 8.1 |
| CCCc1nc2c(C(F)(F)F)cccc2n1Cc1ccc(-c2ccccc2C(N)=O)cc1 | 7.1 |

System: not listed separately
Assay: Cytotoxicity against human HS5 cells assessed as cell death at 10 uM after 72 hrs by propidium iodide/Triton-X100 dye based FACS analysis
Conditions: not given

| Structure (SMILES) | Activity |
| --- | --- |
| CCCc1nc2c(F)cccc2n1Cc1ccc(-c2ccccc2C(N)=O)cc1 | Non-Toxic |
| CCCc1nc2c(C(F)(F)F)cccc2n1Cc1ccc(-c2ccccc2C(N)=O)cc1 | Non-Toxic |
| CCCc1nc2c(O)cccc2n1Cc1ccc(-c2ccccc2C(=O)O)cc1 | Non-Toxic |
| CCCc1nc2c(OC)cccc2n1Cc1ccc(-c2ccccc2C(=O)O)cc1 | Non-Toxic |
| CCCc1nc2c(N)cccc2n1Cc1ccc(-c2ccccc2C(N)=O)cc1 | Non-Toxic |

System: K562
Assay: Cytotoxicity against human K562 cells assessed as cell death at 10 uM after 72 hrs by propidium iodide/Triton-X100 dye based FACS analysis
Conditions: k562, 72 h

| Structure (SMILES) | Activity |
| --- | --- |
| CCCc1nc2c(F)cccc2n1Cc1ccc(-c2ccccc2C(N)=O)cc1 | Non-Toxic |
| CCCc1nc2c(C(F)(F)F)cccc2n1Cc1ccc(-c2ccccc2C(N)=O)cc1 | Non-Toxic |
| CCCc1nc2c(O)cccc2n1Cc1ccc(-c2ccccc2C(=O)O)cc1 | Non-Toxic |
| CCCc1nc2c(OC)cccc2n1Cc1ccc(-c2ccccc2C(=O)O)cc1 | Non-Toxic |
| CCCc1nc2c(N)cccc2n1Cc1ccc(-c2ccccc2C(N)=O)cc1 | Non-Toxic |

System: COS-7
Assay: Cytotoxicity against African green monkey COS7 cells assessed as effect on cell metabolic activity at 20 uM after 72 hrs by MTT assay
Type: ADME, cell-based
Conditions: chlorocebus aethiops, cos-7, 72 h

| Structure (SMILES) | Activity |
| --- | --- |
| CCCc1nc2c(F)cccc2n1Cc1ccc(-c2ccccc2C(N)=O)cc1 | Non-Toxic |
| CCCc1nc2c(C(F)(F)F)cccc2n1Cc1ccc(-c2ccccc2C(N)=O)cc1 | Non-Toxic |
| CCCc1nc2c(O)cccc2n1Cc1ccc(-c2ccccc2C(=O)O)cc1 | Non-Toxic |
| CCCc1nc2c(OC)cccc2n1Cc1ccc(-c2ccccc2C(=O)O)cc1 | Non-Toxic |
| CCCc1nc2c(N)cccc2n1Cc1ccc(-c2ccccc2C(N)=O)cc1 | Non-Toxic |

System: K562-IMA[r]
Assay: Induction of sensitization to imatinib-induced cytotoxicity in imatinib-resistant human K562-IMA[r] cells assessed as induction of cell death at 10 uM after 72 hrs in presence of 1 uM imatinib by propidium iodide/Triton-X100 dye based FACS analysis (reference value: 15%)
Type: functional
Conditions: not given

| Structure (SMILES) | Activity |
| --- | --- |
| CCCc1nc2c(F)cccc2n1Cc1ccc(-c2ccccc2C(N)=O)cc1 | 62 - 78% |
| CCCc1nc2c(C(F)(F)F)cccc2n1Cc1ccc(-c2ccccc2C(N)=O)cc1 | 62 - 78% |

System: K562-IMA[r]
Assay: Induction of sensitization to imatinib-induced cytotoxicity in imatinib-resistant human K562-IMA[r] cells assessed as induction of cell death measured after 72 hrs in presence of 1 uM imatinib by propidium iodide/Triton-X100 dye based FACS analysis
Type: functional
Conditions: not given

| Structure (SMILES) | Activity |
| --- | --- |
| CCCc1nc2c(F)cccc2n1Cc1ccc(-c2ccccc2C(N)=O)cc1 | Dose-dependent effect |
| CCCc1nc2c(C(F)(F)F)cccc2n1Cc1ccc(-c2ccccc2C(N)=O)cc1 | Dose-dependent effect |

System: not listed separately
Assay: Solubility of compound in DMSO at 10 uM by microscopic analysis
Type: physicochemical
Conditions: not given

| Structure (SMILES) | solubility |
| --- | --- |
| CCCc1nc2c(F)cccc2n1Cc1ccc(-c2ccccc2C(N)=O)cc1 | Soluble |
| CCCc1nc2c(C(F)(F)F)cccc2n1Cc1ccc(-c2ccccc2C(N)=O)cc1 | Soluble |
| CCCc1nc2c(O)cccc2n1Cc1ccc(-c2ccccc2C(=O)O)cc1 | Soluble |
| CCCc1nc2c(OC)cccc2n1Cc1ccc(-c2ccccc2C(=O)O)cc1 | Soluble |
| CCCc1nc2c(N)cccc2n1Cc1ccc(-c2ccccc2C(N)=O)cc1 | Soluble |

— ChEMBL document CHEMBL4373734, “Overcoming imatinib resistance in chronic myelogenous leukemia cells using non-cytotoxic cell death modulators” (Eur J Med Chem, 2020)
